Measured values: US20220280507A1, “USES OF 5-METHYLTETRAHYDROFOLATE AND ITS COMPOSITION” (Lianyungang Jinkang Hexin Pharmaceutical Co., Ltd., priority 2019, published 2022)
Where two headings read alike, the source gives them in different places.

Columns and labels:
[1] = tested on: alcoholic liver damage and fatty liver; test: Alcoholic fatty liver model, serum TG, TC, SOD, MDA and liver histopathology; format: in vivo, SD rats; details: for MDA / SOD: day 61, liquor model; for MDA / SOD / TC / TG: n=16; for Pathological examination of liver: liquor model; for TC / TG: serum day 61, liquor model
Experimental: 96 SPF-grade SD rats were chosen in half female and half male with an average weight of 176-220 g at the beginning of the experiment. According to their weight, they were randomly divided into vehicle control group (purified water, ig), model control group (liquor, 10 ml·Kg−1), positive control group (bicyclol, 50 mg·Kg−1, ig), folic acid calcium salt high-dose group (4 mg·Kg−1), folic acid calcium salt medium-dose group (2 mg·Kg−1), folic acid calcium salt low-dose group (1 mg·Kg−1), in half female and half male, and 16 rats in each group. Purified water was used as a negative control, and bicyclol (place of origin: Beijing Xiehe Pharmaceutical Factory, specification: 25 mg/tablet, batch number: H20040467) was used as a positive control drug. Route of administration: all were administered by oral gavage. Dosage of administration: 1 mg·Kg−1, 2 mg·Kg−1, and 4 mg·Kg−1. Frequency of administration: once a day for 60 consecutive days. Erguotou (batch number: 201603092, specification: 2L, place of origin: Beijing Shunxin Agriculture Co., Ltd.) model establishing method: gavage with diluted 56-degree Erguotou twice a day for 60 consecutive days.
Method of administration: administration started at prescribed doses on the day of modeling for 60 consecutive days and ended at the 60th day. At the same time, rats in each group were weighed every other week during administration period to monitor their body weight changes. On the 61st day, rats were dissected and serum was collected for determination of triglyceride (TG), total cholesterol (TC), malondialdehyde (MDA), superoxide dismutase (SOD) and liver histopathologic examination. The brain tissue of rats was taken out, and hippocampus tissue was separated on ice plate, prepared to homogenate with a mass fraction of 10% with purified water, then the homogenate was centrifuged to obtain supernatant. ELISA was used to detect the levels of inflammatory factors TNF-α and IL-1β in hippocampus tissue with continuous spectrum scanning microplate reader.

IL-1β = test: LPS-induced inflammatory response in astrocytes, IL-1β release (ELISA); format: cell-based, Kunming mice; details: culture supernatant, LPS 1 μg·ml-1 + substance 10 μg·ml-1, 24 h, n=6
Excerpt: Experiment 9 Inhibition of 5-Methyltetrahydrofolate and Curcumin on LPS-Induced Inflammatory Response in Astrocytes
The cerebral cortex of Kunming mice at 1˜2 d was taken out under aseptic conditions, washed 3 times with cold PBS after removing residual meninges and blood vessels, prepared into single cell suspension by blowing, centrifuged, the supernatant was discarded, and the precipitant was resuspended in AST basic medium (high-sugar DMEM containing 10% FBS). The suspension was inoculated into a culture flask coated with poly-L-lysine (0.1 mg/ml), and cultured in a CO2 incubator. After 24 h, tissue debris and non-adherent cells were removed by replacing the medium. Afterwards, the medium was replaced every 3 days until the cells reached 80% confluence, then the flask was placed on a constant temperature rotary shaker, where the suspension was centrifuged at 180 r/min, 37° C. for 18 h to remove oligodendrocytes and microglia from the upper layer. Then trypsin digestion was used for subculture. […]
LPS (1 μg·ml-1), LPS (1 μg·ml-1)+curcumin (10 μg·ml-1), LPS (1 μg·ml-1)+5-MTHF-Ca (10 μg·ml-1); experimental group: LPS (1 μg·ml-1)+curcumin (5 μg·ml-1)+5-MTHF-Ca (5 μg·ml-1). After 24 h, the culture supernatant was collected, and the cytokines IL-6, IL-1β and TNF-α were detected by ELISA.

brain tissue of rats = details: n=5
Experimental: Experiment 11 Effects of Drinking and 5-Methyltetrahydrofolate on the Concentrations of Formaldehyde and Formate in the Brain of Rats
The concentrations of formaldehyde and formate, as well as those of serotonin and dopamine in brain tissue of rats were detected at this time. SPF-grade female SD rats, fasted overnight, were divided into 4 groups.
(1) Ethanol group, with intragastric administration of ethanol at a dose of 1 g/kg respectively at 1, 2, 3 h, n=5; (2) control group, with intragastric administration of glucose at a dose of 1.6 g/kg (equivalent to alcohol calories) respectively at 1, 2, and 3 h, n=5; (3) 5-methyltetrahydrofolate group, with intragastric administration of 5-methyltetrahydrofolate calcium at a dose of 4 mg/kg at 0 h, followed by glucose at a dose of 1.6 g/kg (equivalent to alcohol calories) respectively at 1, 2, and 3 h, n=5; (4) 5-methyltetrahydrofolate alcohol group, with intragastric administration of 5-methyltetrahydrofolate calcium at a dose of 4 mg/kg at 0 h, followed by ethanol at a dose of 1 g/kg respectively at 1, 2, and 3 h, n=5.
Gas chromatography was used to detect methanol and ethanol concentrations in blood of rats, and HPLC was used to detect formaldehyde concentration in brain tissue. 0.1 g of brain tissue was taken and 0.5 ml of SDN lysate was added to make homogenate, then 0.5 ml of trifluoroacetic acid was added. The sample was centrifuged at 4° C., 0.4 ml of supernatant was collected, 0.1 ml DNPH (1 g/L) was added, mixed and incubated in 60° C. water bath for 30 min, centrifuged at 4° C., and supernatant was collected to detect formaldehyde concentration. Fluorescence spectrometry was used to detect formate concentration in brain. Serotonin and dopamine enzyme-linked immunosorbent reagent was used to detect neurotransmitters in brain in strict accordance with the instructions.

[2] = 5-methyltetrahydrofolate calcium 4 mg/kg ig at 0 h + ethanol 1 g/kg at 1, 2, 3 h, 24 h after drinking
[3] = 5-methyltetrahydrofolate calcium 4 mg/kg ig at 0 h + glucose 1.6 g/kg at 1, 2, 3 h, 24 h

5-methyltetrahydrofolate calcium
MDA ([1]; 1 mg·kg−1·d−1 ig 60 d): 45.20 ± 8.17 nmol/mgprot
SOD ([1]; 1 mg·kg−1·d−1 ig 60 d): 253.20 ± 24.66 U/mgprot
MDA ([1]; 2 mg·kg−1·d−1 ig 60 d): 42.17 ± 8.65 nmol/mgprot
SOD ([1]; 2 mg·kg−1·d−1 ig 60 d): 257.41 ± 31.28 U/mgprot
MDA ([1]; 4 mg·kg−1·d−1 ig 60 d): 47.96 ± 10.28 nmol/mgprot
SOD ([1]; 4 mg·kg−1·d−1 ig 60 d): 248.87 ± 34.64 U/mgprot
Pathological examination of liver ([1]; high-dose group 4 mg·Kg−1 ig 60 d): no hyperplasia of interstitial connective tissue and fatty degeneration of hepatocytes
Pathological examination of liver ([1]; low-dose group 1 mg·Kg−1 ig 60 d): a few fatty vacuoles in hepatocytes, and no obvious hyperplasia of interstitial connective tissue
Pathological examination of liver ([1]; medium-dose group 2 mg·Kg−1 ig 60 d): no hyperplasia of interstitial connective tissue and fatty degeneration of hepatocytes
TC ([1]; 1 mg·kg−1·d−1 ig 60 d): 1.42 ± 0.36 mmol/L
TG ([1]; 1 mg·kg−1·d−1 ig 60 d): 1.08 ± 0.34 mmol/L
TC ([1]; 2 mg·kg−1·d−1 ig 60 d): 1.50 ± 0.37 mmol/L
TG ([1]; 2 mg·kg−1·d−1 ig 60 d): 1.03 ± 0.50 mmol/L
TC ([1]; 4 mg·kg−1·d−1 ig 60 d): 1.47 ± 0.44 mmol/L
TG ([1]; 4 mg·kg−1·d−1 ig 60 d): 1.04 ± 0.43 mmol/L
IL-1β (IL-1β): 721.45 ± 8.79 pg/mL

CN1c2c([nH]c(N)nc2=O)NCC1CNc1ccc(C(=O)N[C@@H](CCC(=O)O)C(=O)O)cc1 (stereo partly drawn) [5-methyltetrahydrofolate, N-[4-[[(2-amino-1,4,5,6,7,8-hexahydro-4-oxo-5-methyl-(6S), -(6R), and (6R,S)-pteridyl)methyl)amino)toluoyl-glutamic acid]
5-hydroxytryptamine in brain tissue (brain tissue of rats; [2]): 0.10 ± 0.1 µg/L
Dopamine in brain tissue (brain tissue of rats; [2]): 27 ± 4 ng/L
Formaldehyde in brain tissue (brain tissue of rats; [2]): 1.14 ± 0.31 mg/L
Formate in brain tissue (brain tissue of rats; [2]): 5.5 ± 0.4 mg/L
5-hydroxytryptamine in brain tissue (brain tissue of rats; [3]): 0.12 ± 0.04 µg/L
Dopamine in brain tissue (brain tissue of rats; [3]): 35 ± 3 ng/L
Formaldehyde in brain tissue (brain tissue of rats; [3]): 0.39 ± 0.11 mg/L
Formate in brain tissue (brain tissue of rats; [3]): 2.1 ± 0.2 mg/L
